# Results from patent US20010021710A1, “NOVEL CIS-3,4-CHROMAN DERIVATIVES USEFUL IN THE PREVENTION OR TREATMENT OF ESTROGEN RELATED DISEASES OR SYNDROMES” (priority 1996, published 2001).
row,SMILES,melting point
1,"Oc1ccc2c(c1)OC[C@@H](c1ccc(F)cc1)[C@H]2c1ccc(OCCN2CCCC2)cc1 (racemic) [Example 7, (±)-cis-7-Hydroxy-3-(4-fluorophenyl)-4-(4-(2-pyrrolidinoethoxy)phenyl)chromane]",164 to 167 °C
2,"Oc1ccc2c(c1)OC[C@@H](c1ccc(F)cc1)[C@H]2c1ccc(OCCN2CCCCC2)cc1 (racemic) [Example 8, (±)-cis-7-Hydroxy-3-(4-fluorophenyl)-4-(4-(2-piperidinoethoxy)phenyl)-chromane]",146 to 147 °C
3,"Oc1ccc2c(c1)OC[C@@H](c1ccc(F)cc1)[C@H]2c1ccc(OCCCN2CCCCC2)cc1 (racemic) [Example 9, (±)-cis-7-Hydroxy-3-(4-fluorophenyl)-4-(4-(3-piperidinopropoxy)phenyl)chromane]",78 to 84 °C
4,"Oc1ccc([C@@H]2COc3cc(O)ccc3[C@@H]2c2ccc(OCCN3CCCC3)cc2)cc1 (racemic) [Example 10, (±)-cis-7-Hydroxy-3-(4-hydroxyphenyl)-4-(4-(2-pyrrolidinoethoxy)phenyl)chromane]",112 to 116 °C
5,"Cc1ccc([C@@H]2COc3cc(O)ccc3[C@@H]2c2ccc(OCCN3CCCC3)cc2)cc1 (racemic) [Example 12, (±)-cis-7-Hydroxy-3-(4-methylphenyl)-4-(4-(2-pyrrolidinoethoxy)phenyl)chromane]",161 to 165 °C
6,"Cc1ccc([C@@H]2COc3cc(O)ccc3[C@@H]2c2ccc(OCCN3CCCCC3)cc2)cc1 (racemic) [Example 13, (±)-cis-7-Hydroxy-3-(4-methylphenyl)-4-(4-(2-piperidinoethoxy)phenyl)chromane]",146 to 147.5 °C
7,"Cc1cccc([C@@H]2COc3cc(O)ccc3[C@@H]2c2ccc(OCCN3CCCC3)cc2)c1 (racemic) [Example 16, (±)-cis-7-Hydroxy-3-(3-methylphenyl)-4-(4-(2-pyrrolidinoethoxy)phenyl)chromane]",85 to 90 °C
8,"Oc1ccc2c(c1)OC[C@@H](c1cccc(F)c1)[C@H]2c1ccc(OCCN2CCCC2)cc1 (racemic) [Example 17, (±)-cis-3-(3-Fluorophenyl)-7-hydroxy-4-(4-(2-pyrrolidinoethoxy)phenyl)chromane]",146 to 150 °C
9,"Oc1cccc([C@@H]2COc3cc(O)ccc3[C@@H]2c2ccc(OCCN3CCCCC3)cc2)c1 (racemic) [Example 19, (±)-cis-7-Hydroxy-3-(3-hydroxyphenyl)-4-(4-(2-piperidinoethoxy)phenyl)chromane]",144 °C (dec.)
10,"Oc1ccc2c(c1)OC[C@@H](c1cccc(C(F)(F)F)c1)[C@H]2c1ccc(OCCN2CCCC2)cc1 (racemic) [Example 21, (±)-cis-7-Hydroxy-4-(4-(2-pyrrolidinoethoxy)phenyl)-3-(3-(trifluoromethyl)phenyl)-chromane]",87 to 89 °C
11,"Oc1ccc2c(c1)OC[C@@H](c1cccc(C(F)(F)F)c1)[C@H]2c1ccc(OCCN2CCCCC2)cc1 (racemic) [Example 22, (±)-cis-7-Hydroxy-4-(4-(2-piperidinoethoxy)phenyl)-3-(3-(trifluoromethyl)phenyl)-chromane]",118 to 119 °C
12,"Oc1ccc2c(c1)OC[C@@H](c1ccccc1F)[C@H]2c1ccc(OCCN2CCCC2)cc1 (racemic) [Example 23, (±)-cis-3-(2-Fluorophenyl)-7-hydroxy-4-(4-(2-pyrrolidinoethoxy)phenyl)chromane]",190 °C (dec.)
13,"Oc1ccc2c(c1)OC[C@@H](c1c(F)c(F)c(F)c(F)c1F)[C@H]2c1ccc(OCCN2CCCC2)cc1 (racemic) [Example 24, (±)-cis-7-Hydroxy-3-(2,3,4,5,6-pentafluorophenyl)-4-(4-(2-pyrrolidinoethoxy)phenyl)chromane]",125 °C (dec.)
14,"Oc1ccc2c(c1)OC[C@@H](c1c(F)c(F)c(F)c(F)c1F)[C@H]2c1ccc(OCCN2CCCCC2)cc1 (racemic) [Example 25, (±)-cis-7-Hydroxy-3-(2,3,4,5,6-pentafluorophenyl)-4-(4-(2-piperidinoethoxy)phenyl)chromane]",174 °C (dec.)
15,"Oc1ccc2c(c1)OC[C@@H](c1ccc(C(F)(F)F)cc1)[C@H]2c1ccc(OCCN2CCCC2)cc1 [Example 1, (+)-cis-7-Hydroxy-4-(4-(2-pyrrolidinoethoxy)phenyl)-3-(4-(trifluoromethyl)phenyl)-chromane]",100 °C (dec.)
